Among the data in PubChem BioAssay AID504864 (NMMLSC, 2011) are viability values, retold here.

SMILES strings stand for the structures. Calls of active or inactive are those of the source.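 Rule for the calls: active = normalized viability below 40% relative to DMSO and staurosporine controls, called cytotoxic; inactive = the rest.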

This experiment concerns ConA-stimulated mouse T cells viability, FDA flow cytometry, 24 h. As to the kind of experiment: viability of concanavalin A-activated mouse T cells – cell-based, concanavalin A stimulation, cytotoxicity control for T cell immune modulator project (AID 504864). As to conditions: at 20 µM; stronger effect = lower value.
Broadly, the viability is a read-out of living cells in per cent, often relative to untreated cells. `O=C(NCCC1=CCCCC1)C(=O)NCC(c1ccco1)N1CCN(c2ccccc2F)CC1` (stereo not drawn): the viability is 73.6% (inactive).

As to `COc1ccc([N+](=O)[O-])cc1NC(=O)c1ccc(N(Cc2ccccc2C)S(C)(=O)=O)cc1`, the viability is 90.9% (inactive).

Regarding `Cc1ccc(OCCOC(=O)c2cc(S(=O)(=O)N3CCCCC3)ccc2N2CCOCC2)cc1`, the viability was 48.6% (inactive). Consider `COc1cccc(NC(=O)Nc2ccc3nc(C)c(C)nc3c2)c1`, for which the viability is 100% (inactive). For `Cn1c(CNC(=O)CNC(=O)c2ccc(F)cc2)cc(=O)n(C)c1=O`, the viability is 96.3% (inactive). Regarding `O=C(c1ccc(N2C(=O)C3CC=C(Cl)CC3C2=O)cc1)N1CCCCC1` (stereo not drawn), the viability is 6.85%.

For the compound `CCOC(=O)c1c(C=O)c2ccccc2n1CC`, the viability was 91.6% (inactive).

In the case of `CC(=O)c1ccc(-c2csc(N3CCC(C(N)=O)CC3)n2)cc1`, the viability is 91.6% (inactive). `CCN(CC)C(=O)N1CCN(S(=O)(=O)c2ccc(C)cc2)CC1`: the viability is 105% (inactive).

Consider `CN1CCN(S(=O)(=O)c2cccc(C(=O)Nc3cc(C(F)(F)F)ccc3N3CCCCC3)c2)CC1`, for which the viability was 56.9% (inactive).

Consider `COc1ccc(S(=O)(=O)N2CCCCC2)cc1NC(=O)c1cnc(C)cn1`, for which the viability was 102% (inactive). Turning to `CC1CCCCC1NC(=O)COC(=O)c1ccc2ncsc2c1` (stereo not drawn), the viability was 90.9% (inactive).

Consider `O=C(NNS(=O)(=O)c1ccc2ccccc2c1)c1cccs1`, for which the viability was 100% (inactive).

As for `O=C(NCC1CCCCC1)c1ccc(Cl)c(S(=O)(=O)N2CCOCC2)c1`, the viability is 78.3% (inactive).

For the compound `CCCNC(=O)c1nc2ncc(Br)cn2n1`, the viability is 101% (inactive).

In the case of `CCCc1nnc(NC(=O)c2ccc(S(=O)(=O)N(C)c3ccccc3OC)cc2)s1`, the viability is 89.7% (inactive).

Regarding `O=C(CS(=O)(=O)Cc1ccccc1)N1CCc2ccccc21`, the viability was 106% (inactive). With `CCOc1ccc(CCNC(=O)CCS(=O)(=O)c2ccc(C)cc2)cc1OCC`, the viability is 85.5% (inactive). The same measure for `COc1ccc(Nc2ccccc2N)cc1`: 21.9%; for `Cc1cc(C)n(C(=O)c2sc3cc(F)ccc3c2Cl)n1`: 87.8% (inactive). Turning to `O=C(NCCN1CCN(c2ccccc2)CC1)c1cccc(Br)c1`, the viability was 86.2% (inactive). For the compound `Cc1ccc(Cn2c([N+](=O)[O-])cnc2C)cc1`, the viability was 110% (inactive). Consider `COc1ccc(/C=C2\SC(=S)N(CCC(=O)N3CCOCC3)C2=O)cc1`, for which the viability is 78.4% (inactive). The same measure for `CCOC(=O)N1CCN(C(=O)c2ccc(CS(=O)Cc3ccc(C)cc3)o2)CC1` (stereo not drawn): 98.2% (inactive).

On to `COc1ccc(NC(=O)CSCC(=O)Nc2cccc(S(=O)(=O)N3CCCCCC3)c2)cc1`, for which the viability was 86.6% (inactive).

For the compound `O=C(OCCOc1cccc(Cl)c1)c1ccc(F)c(S(=O)(=O)N2CCOCC2)c1`, the viability was 85% (inactive). As for `COC(=O)c1ccccc1NC(=O)C1CCN(C(=O)c2cc(OC)cc(OC)c2)CC1`, the figure is 103% (inactive); as for `O=C(CC1=NCCNC(c2ccccc2)C1)c1ccccc1O` (stereo not drawn), 75% (inactive). With `COc1ccc(NC(=O)CC2C(=O)N(Cc3ccccc3)C(=S)N2CCN2CCOCC2)cc1` (stereo not drawn), the viability was 100% (inactive). For `COc1ccc(N2CC(C(=O)NC(C)C(=O)NCc3ccccc3OC)CC2=O)cc1` (stereo not drawn), the viability is 88.2% (inactive).

With `Cc1ccccc1C(=O)N1CCC(C(=O)Nc2ccc(C)c(S(=O)(=O)N3CCCCC3)c2)CC1`, the viability is 82.2% (inactive). On to `COc1ccc(C2=Nc3cc(C)ccc3OC2)cc1`, for which the viability was 94.5% (inactive). Consider `O=C(NCc1cccnc1)C(=O)NCC(c1ccco1)N1CCN(c2ccccc2)CC1` (stereo not drawn), for which the viability is 101% (inactive). As for `O=C1CC(c2nc3ccccc3[nH]2)CN1Cc1ccccc1` (stereo not drawn), the viability was 110% (inactive). The same measure for `CCC(C(=O)Nc1ccccc1)c1ccccc1` (stereo not drawn): 104% (inactive); for `Cc1ccc(NC(=O)COC(=O)CCc2c[nH]c3ccccc23)c(C)c1`: 97.2% (inactive).

With `CCOC(=O)c1ccc(S(=O)(=O)N2CCN(C3CCCC3)CC2)cc1`, the viability is 90.7% (inactive). As for `CCC1(C)NC(=O)N(CC(=O)N2N=C(c3ccccc3)CC2c2ccc(OC)cc2)C1=O` (stereo not drawn), the viability is 93.6% (inactive). Consider `CCCCOc1ccc(C(=O)NCC(=O)N2CCN(C(=O)c3ccco3)CC2)cc1`, for which the viability is 85.5% (inactive). For the compound `NC(=O)C1CCN(c2nc(-c3cc4ccccc4o3)cs2)CC1`, the viability is 88.8% (inactive). Take `Cc1ccc(S(=O)(=O)N2CCN(S(=O)(=O)N(C)C)CC2)c(C)c1`: the viability is 84.8% (inactive). As for `O=C(O)C1CCC(Cn2c(SCc3cc(=O)n4cc(Cl)ccc4n3)nc3ccsc3c2=O)CC1` (stereo not drawn), the figure is 71.6% (inactive); as for `Cc1ccc(N2CC(C(=O)NC3=NCCS3)CC2=O)cc1` (stereo not drawn), 93.6% (inactive); as for `CC(Sc1nc2ccccc2[nH]1)C(=O)NC1CCCCC1C` (stereo not drawn), 101% (inactive). As to `O=C(COC(=O)C12CC3CC(CC(Br)(C3)C1)C2)Nc1cccc(S(=O)(=O)N2CCOCC2)c1`, the viability was 96.9% (inactive). Turning to `O=C(Cn1cc(C(F)(F)F)cc(Cl)c1=O)NCCc1ccc(Cl)cc1Cl`, the viability was 102% (inactive). Regarding `Cc1ccc(C(=O)NCCCN2CCOCC2)c(C)c1`, the viability is 96.3% (inactive). Take `COc1ccc(C(O)c2coc3ccc(O)c(CN(C)C)c23)cc1` (stereo not drawn): the viability is 88% (inactive).

Consider `Cc1cccc(NC(=O)C2CCN(S(=O)(=O)c3c(C)[nH]c(=O)[nH]c3=O)CC2)c1`, for which the viability is 96% (inactive). As for `Cc1sc2ncnc(NCC(C)(C)N3CCOCC3)c2c1C`, the figure is 101% (inactive); as for `CCOCC(=O)Nc1ccc(S(=O)(=O)N2CCC(c3nc4ccccc4[nH]3)CC2)cc1`, 94% (inactive); as for `COc1ccc(CNC(=O)c2cccnc2SC)cc1OC`, 75.5% (inactive). As for `COc1ccccc1NS(=O)(=O)c1cc(NC(=O)CNC(=O)c2cc(C)cc(C)c2)ccc1C`, the viability was 111% (inactive). The same measure for `Cc1cc(Cl)c(OCCCSc2nc(C)cc(=O)[nH]2)c(Br)c1`: 103% (inactive); for `CCN(CC)CCNC(=O)CCCNC(=O)Cn1cnc2sc(C)c(C)c2c1=O`: 98.7% (inactive); for `CCN(CC)S(=O)(=O)c1ccc(Cl)c(NC(=O)COC(=O)C2CCCCC2)c1`: 106% (inactive). Consider `COc1ccc(S(=O)(=O)N2CCCC2C(=O)Nc2ccc(C(C)=O)cc2)cc1` (stereo not drawn), for which the viability was 94.9% (inactive). As for `O=C(CCC(=O)N1CCOCC1)NCc1cccc(C(F)(F)F)c1`, the figure is 98% (inactive).

With `c1ccc(COc2ccc(OCCN3CCCCC3)cc2)cc1`, the viability was 112% (inactive). For `CN(CC(=O)Nc1cc(S(=O)(=O)N2CCCC2)ccc1Cl)Cc1ccc2c(c1)OCO2`, the viability is 78.3% (inactive).

For `CC(C)(C)NC(=O)COc1ccc(CNCc2cccnc2)cc1`, the viability is 91.1% (inactive).

For `CN(C)S(=O)(=O)c1cccc(-n2sc3ccccc3c2=O)c1`, the viability is 12.1%.

In the case of `Cc1cc(=O)oc2c3c(cc(OCC(=O)NCc4ccncc4)c12)OC(C)(C)CC3`, the viability was 106% (inactive). For `COCCCN1CCc2[nH]c(=S)[nH]c(=O)c2C1`, the viability was 95.4% (inactive). As to `CCOC(=O)c1ccc(NC(=O)CN2C(=O)NC3(CCCCCCC3)C2=O)cc1`, the viability was 91.1% (inactive). As to `CN1CCN(S(=O)(=O)c2ccc(C(=O)Nc3ccccc3)cc2)CC1`, the viability was 93.5% (inactive).

Turning to `CCOC(=O)C1CCCN(S(=O)(=O)c2ccc(F)c(C(=O)Nc3ccc(F)c(F)c3)c2)C1` (stereo not drawn), the viability was 74.5% (inactive).

Turning to `CCOc1ccc(-c2nc(N)ncc2-c2ccccc2)c(O)c1`, the viability is 83.1% (inactive). As for `Cc1ccccc1C(=O)NCC(=O)N1CCN(C/C=C/c2ccccc2)CC1`, the viability was 100% (inactive). Turning to `Cc1ccc(S(=O)(=O)N2CCN(C(=O)CNC(=O)c3ccc(Cl)cc3)CC2)cc1`, the viability was 33.2%. The same measure for `CC(=O)Nc1ccc(S(=O)(=O)NC2CCSc3ccccc32)cc1` (stereo not drawn): 98.5% (inactive). Regarding `COCc1c(C(=O)Nc2cccc(S(=O)(=O)N3CCCCC3)c2)oc2ccccc12`, the viability is 58.7% (inactive).

`CN(C)S(=O)(=O)c1ccc(C(=O)NCCc2ccco2)cc1`: the viability is 91.8% (inactive). As for `CCCCn1nc(C(=O)N2CCN(S(=O)(=O)c3ccccc3)CC2)c2ccccc2c1=O`, the viability is 98.2% (inactive). Consider `CCOC(=O)c1c(N2C(=O)CC(Sc3ccccc3C(=O)O)C2=O)sc2c1CCCC2` (stereo not drawn), for which the viability is 94.2% (inactive).

In the case of `Cc1ccc(O)c(CCc2ccccc2)n1`, the viability was 96.7% (inactive). Consider `COc1ccccc1CNC(=O)COc1ccc(C)cc1`, for which the viability was 98.7% (inactive). As for `Cc1ncc([N+](=O)[O-])n1Cc1cccc(F)c1`, the figure is 116% (inactive).
